Key:
[1] = Cytotoxicity against human HepG2 cells assessed as cell growth inhibition incubated for 3 days by CellTiter-Glo reagent-based luminescence assay; type: toxicity
[2] = system: Mycobacterium tuberculosis; test: Antibacterial activity against wild type Mycobacterium tuberculosis H37Rv-LP DREAM8 strain expressing codon-optimized DsRed assessed growth inhibition incubated for 5 days by fluorescence spectrophotometric assay; type: functional; settings: H37Rv-LP DREAM8, 120 h, time 5 day
[3] = Selectivity index, ratio of IC50 for cytotoxicity against human HepG2 cells to IC90 for antibacterial activity against wild type Mycobacterium tuberculosis H37Rv-LP DREAM8 strain expressing codon-optimized DsRed; type: toxicity, cell-based

Row | Structure (SMILES) | IC50 at 3 days [1] [µM] | IC90 [2] [µM] | selectivity ratio [3]
1 | COc1ccc(-c2cc(C(F)(F)F)c3c(N)c(C(=O)NC(C)c4ccccc4)sc3n2)cc1 (stereo not given) | 52 | 0.63 | 83
2 | COc1ccc(-c2cc(C(F)(F)F)c3c(N)c(C(=O)N4CCC4)sc3n2)cc1 | 62 | > 100 | < 1
3 | Nc1c(C(=O)N2CCOCC2)sc2ncccc12 | > 100 | > 100 | –
4 | COc1ccc(-c2cc(C(F)(F)F)c3c(N)c(C(=O)N4CCCC4)sc3n2)cc1 | > 50 | > 50 | –
5 | COc1ccc(-c2cc(C(F)(F)F)c3c(N)c(C(=O)NCc4ccccc4C)sc3n2)cc1 | 23 | 2.4 | 10
6 | Nc1c(C(=O)Nc2cccnc2)sc2nc(-c3ccccc3)cc(C(F)(F)F)c12 | > 100 | > 100 | –
7 | Nc1c(C(=O)NC23CC4CC(CC(C4)C2)C3)sc2nc(-c3ccc4c(c3)OCO4)cc(C(F)(F)F)c12 | 81 | 0.68 | –
8 | Nc1c(C(=O)N2CC(F)(F)C2)sc2nc(-c3ccccc3)ccc12 | 38 | > 100 | –
9 | CN(C)C(=O)c1sc2ncccc2c1N | > 100 | > 100 | –
10 | CCNC(=O)c1sc2nc(-c3ccc(Cl)cc3Cl)cc(C(F)(F)F)c2c1N | 36 | > 100 | –
11 | COc1ccc(-c2cc(C(F)(F)F)c3c(N)c(C(=O)NC4CC4)sc3n2)cc1 | > 100 | > 100 | –
12 | COc1ccc(-c2cc(C(F)(F)F)c3c(N)c(C(=O)NC4CCC(c5ccc(C(C)(C)C)cc5)CC4)sc3n2)cc1 (stereo not given) | > 10 | > 10 | –
13 | COc1ccc(-c2cc(C(F)(F)F)c3c(N)c(C(=O)Nc4cccc(C)c4C)sc3n2)cc1OC | 42 | > 100 | –
14 | COc1ccc(-c2cc(C(F)(F)F)c3c(N)c(C(=O)Nc4cccc(C)c4C)sc3n2)cc1 | 44 | 1.1 | –
15 | COc1ccc(-c2cc(C(F)(F)F)c3c(N)c(C(=O)NC45CC(C4)C5)sc3n2)cc1 | 36 | > 50 | < 1
16 | COc1ccc(-c2cc(C(F)(F)F)c3c(N)c(C(=O)Nc4cc(C)cc(C)c4)sc3n2)cc1 | 47 | > 100 | < 1
17 | COCCNC(=O)c1sc2nc(-c3ccc(OC)cc3)cc(C(F)(F)F)c2c1N | > 100 | > 100 | –
18 | Nc1c(C(=O)N2CCOCC2)sc2nc(-c3ccoc3)ccc12 | 50 | > 100 | –
19 | Nc1c(C(=O)N2CC(F)(F)C2)sc2ncccc12 | > 100 | > 100 | –
20 | Nc1c(C(=O)N2CCCC2)sc2nc(-c3ccc4c(c3)OCO4)cc(C(F)(F)F)c12 | > 100 | > 100 | –
21 | COc1ccc(-c2cc(C(F)(F)F)c3c(N)c(C(=O)NC45CC6CC(CC(C6)C4)C5)sc3n2)cc1 | > 100 | 1.1 | < 91
22 | COc1ccc(-c2ccc3c(N)c(C(=O)Nc4cccc(C)c4C)sc3n2)cc1 | > 100 | > 100 | –
23 | COc1ccc(-c2ccc3c(N)c(C(=O)N4CCOCC4)sc3n2)cc1 | 63 | > 100 | –
24 | COc1ccc(-c2cc(C(F)(F)F)c3c(N)c(C(=O)N4CC5(CCOC5)C4)sc3n2)cc1 | 33 | > 50 | < 1

Row | Structure (SMILES) | IC50 at 3 days [1] [µM] | IC90 [2] [µM] | selectivity ratio [3]
25 | Cc1ccc(NC(=O)c2sc3nc(C)cc(C(F)(F)F)c3c2N)cc1 | 31 | > 100 | –
26 | Nc1c(C(=O)NCc2ccccc2)sc2ncccc12 | > 100 | > 100 | –
27 | COc1ccc(-c2cc(C(F)(F)F)c3c(N)c(C(=O)Nc4cccc(C)c4OC)sc3n2)cc1 | > 100 | > 100 | –
28 | COc1ccc(-c2cc(C(F)(F)F)c3c(N)c(C(=O)NC4CC5(C4)CN(C(=O)OC(C)(C)C)C5)sc3n2)cc1 | 12 | > 100 | < 1
29 | COc1ccc(-c2cc(C(F)(F)F)c3c(N)c(C(=O)NCC45CC6CC(CC(C6)C4)C5)sc3n2)cc1 | > 100 | 1.4 | < 71
30 | COC1CN(C(=O)c2sc3nc(-c4ccccc4)ccc3c2N)C1 | 38 | > 100 | –
31 | Nc1c(C(=O)NCc2ccccc2)sc2nc(-c3ccccc3)ccc12 | > 100 | > 100 | –
32 | Cc1ccc(NC(=O)c2sc3nc(-c4ccccc4)cc(C(F)(F)F)c3c2N)cc1 | 24 | > 100 | –
33 | COc1ccc(-c2cc(C(F)(F)F)c3c(N)c(C(=O)Nc4ccc(C)cc4C)sc3n2)cc1 | > 100 | > 100 | –
34 | COc1ccc(-c2cc(C(F)(F)F)c3c(N)c(C(=O)Nc4cccc(C)c4C)sc3n2)cn1 | 31 | 1.4 | –
35 | Nc1c(C(=O)Nc2ccccc2C(F)(F)F)sc2nc(-c3ccccc3)cc(C(F)(F)F)c12 | 97 | > 100 | –
36 | Nc1c(C(=O)N2CCOCC2)sc2nc(-c3cccnc3)ccc12 | > 100 | > 100 | –
37 | COc1ccc(-c2cc(C(F)(F)F)c3c(N)c(C(=O)N4CCCCC4)sc3n2)cc1 | > 100 | > 100 | –
38 | Cc1cccc(NC(=O)c2sc3nc(-c4ccc5c(c4)OCO5)cc(C(F)(F)F)c3c2N)c1C | 46 | 0.94 | –
39 | COc1cccc(-c2cc(C(F)(F)F)c3c(N)c(C(=O)Nc4cccc(C)c4C)sc3n2)c1 | 52 | > 100 | –
40 | COc1ccc(-c2cc(C(F)(F)F)c3c(N)c(C(=O)Nc4c(C)cccc4C)sc3n2)cc1 | > 100 | > 100 | –
41 | COc1ccc(-c2cc(C(F)(F)F)c3c(N)c(C(=O)Nc4cc(C)ccc4C)sc3n2)cc1 | 23 | > 100 | < 1
42 | COC1CN(C(=O)c2sc3ncccc3c2N)C1 | > 100 | > 100 | –
43 | COc1ccc(-c2cc(C)c3c(N)c(C(=O)Nc4cccc(C)c4C)sc3n2)cc1 | 27 | > 100 | –
44 | COc1ccc(-c2cc(C(F)(F)F)c3c(N)c(C(=O)NCc4cccc(C)c4C)sc3n2)cc1 | 50 | 1.3 | 38
45 | COc1ccc(-c2cc(C(F)(F)F)c3c(N)c(C(=O)Nc4ccccc4)sc3n2)cc1 | > 100 | > 100 | –
46 | Cc1cccc(NC(=O)c2sc3nc(-c4ccccc4)cc(C(F)(F)F)c3c2N)c1C | > 100 | > 100 | –
47 | Nc1c(C(=O)N2CCOCC2)sc2nc(-c3ccc(F)cc3)ccc12 | 41 | > 100 | –
48 | COc1ccc(-c2cc(C(F)(F)F)c3c(N)c(C(=O)NC(C)C4CCCCC4)sc3n2)cc1 (stereo not given) | > 100 | 1.1 | > 91

Row | Structure (SMILES) | IC50 at 3 days [1] [µM] | IC90 [2] [µM] | selectivity ratio [3]
49 | COc1ccc(-c2cc(C(F)(F)F)c3cc(C(=O)NC(C)c4ccccc4)sc3n2)cc1 (stereo not given) | > 100 | 2.5 | –
50 | COc1ccc(-c2cc(C(F)(F)F)c3c(N)c(C(=O)N4CC(F)(F)C4)sc3n2)cc1 | > 50 | > 50 | < 1
51 | COc1ccc(-c2cc(C(F)(F)F)c3c(N)c(C(=O)N4CCCC4(C)C)sc3n2)cc1 | 78 | > 100 | < 1
52 | CCC(NC(=O)c1sc2nc(-c3ccc(OC)cc3)cc(C(F)(F)F)c2c1N)c1ccccc1 (stereo not given) | > 100 | 0.74 | > 135
53 | Cc1cccc(NC(=O)c2sc3nc(-c4cccs4)cc(C(F)(F)F)c3c2N)c1 | 32 | > 100 | –
54 | Nc1c(C(=O)N2CCOCC2)sc2nc(-c3ccccc3)ccc12 | 56 | > 100 | –
55 | Cc1ccc(-c2cc(C(F)(F)F)c3c(N)c(C(=O)Nc4cccc(C)c4C)sc3n2)cc1 | 60 | > 100 | –
56 | Cc1cccc(NC(=O)c2sc3nc(-c4ccco4)cc(C(F)(F)F)c3c2N)c1C | > 100 | > 100 | –
57 | COc1ccc(-c2cc(C(F)(F)F)c3c(N)c(C(=O)NC4COC4)sc3n2)cc1 | > 100 | > 100 | –
58 | Cc1cccc(CNC(=O)c2sc3nc(-c4ccc5c(c4)OCO5)cc(C(F)(F)F)c3c2N)c1C | 44 | > 100 | –
59 | COc1ccc(-c2ccc3c(N)c(C(=O)N4CCOCC4)sc3n2)cc1OC | > 100 | > 100 | –
60 | Nc1c(C(=O)Nc2ccccc2F)sc2nc(-c3ccccc3)cc(C(F)(F)F)c12 | > 100 | > 100 | –
61 | COc1ccc(-c2cc(C(F)(F)F)c3c(N)c(C(=O)N4C5CCCC4COC5)sc3n2)cc1 | 42 | > 100 | < 1
62 | CCN(CC)C(=O)c1sc2ncccc2c1N | > 100 | > 100 | –
63 | COc1ccc(-c2cc(C(F)(F)F)c3c(N)c(C(=O)NCCSC)sc3n2)cc1 | > 100 | 41 | –
64 | COc1ccc(-c2cc(C(F)(F)F)c3c(N)c(C(=O)NC45CC6CC(CC(O)(C6)C4)C5)sc3n2)cc1 | 19 | 7.5 | 3
65 | COc1ccc(-c2cc(C(F)(F)F)c3c(N)c(C(=O)Nc4cccc(C)c4F)sc3n2)cc1 | 42 | > 100 | –
66 | COc1ccc(-c2cc(C(F)(F)F)c3c(N)c(C(=O)N4CC(OC)C4)sc3n2)cc1 | 50 | > 100 | < 1
67 | Cc1cccc(NC(=O)c2sc3nc(-c4cccs4)cc(C(F)(F)F)c3c2N)c1C | > 100 | > 100 | –
68 | CN(C)C(=O)c1sc2nc(-c3ccccc3)ccc2c1N | > 100 | > 100 | –
69 | Nc1c(C(=O)N2CCOCC2)sc2nc(Cl)ccc12 | > 100 | > 100 | –
70 | Nc1c(C(=O)NCc2ccc(F)cc2)sc2nc(-c3ccccc3)ccc12 | > 100 | > 100 | –
71 | Nc1c(C(=O)NCc2ccc(F)cc2)sc2ncccc12 | > 100 | > 100 | –

From ChEMBL document CHEMBL6153157, “Novel 3-Aminothieno[2,3-b]pyridine-2-carboxamides with Activity against Mycobacterium tuberculosis” (ACS Med Chem Lett, 2025)
